Assays:
M-HeLa = assay: MTT cell viability test, M-HeLa; format: cell-based, human; details: for IC50: Homo sapiens, M-HeLa, incubation time 24 h; for selectivity (SI) for M-HeLa: IC50 normal cells (WI38) / IC50 M-HeLa
Method: (§1) Human cell cultures of tumor origin—HeLa (cervical tumor), HuTu 80 (human duodenal adenocarcinoma), ChangLiver (human liver HeLa-like line), and normal cell line WI38, VA 13 subline 2RA is a diploid human cell strain composed of fibroblasts derived from healthy lung tissue provided by The Gamaleya National Center for Epidemiology and Microbiology, as well as the Institute of Cytology of the Russian Academy of Sciences. They were grown in a nutrient medium DMEM (PanEco, Moscow, Russia) and MEM (PanEco, Moscow, Russia), containing fetal bovine serum (10% by volume) (ThermoFisher Scientific, Paisley, UK), Glutamax (2 mM) (Gibco, Scotland, UK), and penicillin-streptomycin (1% by volume) (PanEco, Moscow, Russia). The cultivation was carried out at 37 °C in a humidified CO2 atmosphere (5%).
(§2) Cell viability was determined by the MTT test. Cells were seeded in a 96-well plate in the amount of 1 × 10^4 cells/200 µL of complete nutrient medium and cultured at 37 °C in CO2 (5%). After 24 h of incubation, various concentrations of test compounds in the range of 0.1 to 100 μM were added to the cell cultures, and then the cells were cultured under the same conditions for 24 and 72 h. For each concentration, the experiment was carried out in triplicate.
(§3) All compounds were dissolved in DMSO and then diluted with the medium to the required concentration. […] The DMSO was also added to the control wells in a volume of 1%. After the incubation time, MTT (3-(4,5-dimethylthiazol-2-yl)-2,5-diphenyltetrazolium bromide, 5 mg/mL) was added to each well, and plates were additionally incubated for 2 h (until the characteristic color appeared).
(§4) Using a plate analyzer (Cytation3, BioTech Instruments Inc., Winooski, VT, USA), the optical density was determined at 530 nm.
(§5) The IC50 parameter was calculated using the AAT Bioquest program.
(§6) The selectivity index (SI) is calculated as the ratio between the IC50 for normal cells and the IC50 for cancer cells.

HuTu 80 = assay: MTT cell viability test, HuTu 80; format: cell-based, human; details: for selectivity (SI) for HuTu 80: IC50 normal cells (WI38) / IC50 HuTu 80; for IC50: Homo sapiens, HuTu80, incubation time 24 h
Method: as §1, §2, §3, §4, §5, §6

Chang Liver = assay: MTT cell viability test, Chang liver; format: cell-based; details: Homo sapiens, incubation time 24 h
Method: as §1, §2, §3, §4, §5

WI38 = assay: MTT cell viability test, WI38; format: cell-based, human; details: for IC50: Homo sapiens, WI-38, incubation time 24 h
Method: as §1, §2, §3, §4, §5

platelet aggregation = assay: Platelet aggregation, Born method; format: cell-based, human; details: for reduction of the maximum platelet aggregation, on average: text summary for 3a and 3b
Method: The in vitro experiments were performed using the blood of healthy male donors aged 18-24 years (a total of 54 donors). This study was approved by the Ethics Committee of the Federal State Budgetary Educational Institution of Higher Education at the Bashkir State Medical University of the Ministry of Health of the Russian Federation (No. 2, dated 17 October 2012). Informed consent was obtained from all participants before blood sampling. The blood was collected from the cubital vein using the vacuum blood collection system BD Vacutainer® (Becton, Dickinson, and Company, Franklin Lakes, NJ, USA). […] The study of the effect on platelet aggregation was performed using the Born method using the aggregometer «[…], Moscow, Russia). The assessment of the antiplatelet activity of the studied compounds and reference preparations was started with a final concentration of 2 × 10^-3 mol/L. Adenosine diphosphate (ADP; 20 μg/mL) and collagen (5 mg/mL) manufactured by […] Company, Barnaul, Russia, were used as inducers of aggregation. The study on the anticoagulant activity was performed by standard recognized clotting tests using the optical two-channel automatic analyzer of blood coagulation, Solar […] SOLAR, Minsk, Belarus). The following parameters were studied: activated partial thromboplastin time (APTT), prothrombin time (PT), and fibrinogen concentrations according to the Clauss method. The determination of the anticoagulant activity of the studied compounds and reference preparation was performed at a concentration of 5 × 10^-4 g/mL using the reagents manufactured by […] Company (Barnaul, Russia). The results of the study were processed using the statistical package Statistica 10.0 (StatSoft Inc., Tulsa, OK, USA). The Shapiro-Wilk's test was used to check the normality of the [NT] distribution. The form of distribution of the data obtained differed from the normal one; therefore, non-parametric methods were used for further analysis. The data were presented as medians and 25 and 75 percentiles. An analysis of variance was conducted using the Kruskal-Wallis test.

HuTu 80 cells [1] = assay: ROS production, CellROX Deep Red flow cytometry; format: cell-based, human
Method: ROS generation was investigated using a flow cytometry assay and the CellROX® Deep Red flow cytometry kit. For this, HuTu 80 cells were harvested at 2000 rpm for 5 min and then washed twice with ice-cold PBS, followed by resuspension in 0.1 mL of medium without FBS, to which was added 0.2 μL of CellROX® Deep Red and incubated at 37 °C for 30 min. After three times washing the cells and suspending them in PBS, the production of ROS in the cells was immediately monitored using a flow cytometer (Guava easyCyte, Merck, Rahway, NJ, USA).

HuTu 80 cells [2] = assay: Mitochondrial membrane potential, JC-10 flow cytometry; format: cell-based, human; details: 24 h; concentrations corresponding to IC50
Method: To analyze the effect of compounds on changes in the mitochondrial membrane potential, we performed flow cytometry using JC-10 fluorescent dye (in the Mitochondria Membrane Potential Kit). In normal cells (with high membrane potential), JC-10 accumulates in the mitochondrial matrix, where it forms aggregates with red fluorescence. However, in apoptotic cells, JC-10 diffuses out of mitochondria, converts to its monomeric form, and emits green fluorescence, which is recorded by a flow cytometer. Cells were harvested at 2757 g for 5 min and then washed twice with ice-cold PBS, followed by resuspension in JC-10 (10 µg/mL) and incubation at 37 °C for 10 min. Then, the cells were rinsed three times and suspended in PBS, and the JC-10 fluorescence was observed by flow cytometry (Guava easyCyte, Merck, Rahway, NJ, USA).

HuTu 80 cells [3] = assay: Apoptosis induction, annexin V/propidium iodide flow cytometry; format: cell-based, human; details: 24 h; IC50 concentration of 40 μM
Method: HuTu 80 cells at 1 × 10^6 cells/well in a final volume of 2 mL were seeded into six-well plates. After 24 h of incubation, various concentrations of tested compounds were added to the wells. The cells were harvested at 2757 g for 5 min and then washed twice with ice-cold PBS, followed by resuspension in binding buffer. Next, the samples were incubated with 5 μL of annexin V-Alexa Fluor 647 (Sigma-Aldrich, Burlington, MA, USA) and 5 μL of propidium iodide for 15 min at room temperature in the dark. Finally, the cells were analyzed by flow cytometry (Guava easyCyte, Merck, Rahway, NJ, USA) within 1 h. The experiments were repeated three times.

SMILES | IC50 (M-HeLa) [µM] | selectivity (SI) for M-HeLa (M-HeLa) | selectivity (SI) for HuTu 80 (HuTu 80) | IC50 (Chang Liver) [µM] | IC50 (WI38) [µM] | lengthening of the lag-period relative to the control (platelet aggregation) | reduction of the maximum platelet aggregation, on average (platelet aggregation) [%] | IC50 (HuTu 80) [µM] | increase in ROS production relative to the control (HuTu 80 cells [1]; 12.5 µM) [fold] | increase in ROS production relative to the control (HuTu 80 cells [1]; 25 µM) [times] | cytotoxicity against the healthy cell line WI38 (WI38) | green fluorescence increased relative to the control (HuTu 80 cells [2]) | ROS production relative to the control (HuTu 80 cells [1]) | cytotoxicity, times higher than the reference drug 5-FU (M-HeLa; cell line not given) [times] | apoptosis-inducing activity (HuTu 80 cells [3])
O=c1[nH]cc(F)c(=O)[nH]1 [Compound 5-FU, 5-fluorouracil, reference compound] | 62 ± 4.9 | ≤ 1 | ≤ 1 | 19 ± 1.7 | 62 ± 4.2 |  |  |  |  |  |  |  |  |  | 
O=C1C(=O)N(Cc2ccccc2F)c2ccc(F)cc21 [Compound 3a, 5-Fluoro-1-(2-fluorobenzyl)indoline-2,3-dione] | 74.6 ± 5.9 |  | 2.5 | 53 ± 4.2 | 62 ± 2 | more than 10% | ~12 | 25.2 ± 1.9 | 1.1 | 7.1 | low cytotoxicity |  |  |  | 
O=C1C(=O)N(Cc2c(F)cccc2Cl)c2ccc(F)cc21 [Compound 3d, 1-(2-Chloro-6-fluorobenzyl)-5-fluoroindoline-2,3-dione] | 53.8 ± 4.3 | 1.5 | 2.5 | > 100 | 78.3 ± 8 |  |  | 31 ± 2.4 |  |  | low cytotoxicity | up to 55% | increased ROS production |  | 
O=C1C(=O)N(Cc2ccccc2Cl)c2ccc(F)cc21 [Compound 3b, 1-(2-Chlorobenzyl)-5-fluoroindoline-2,3-dione] | 32.1 ± 2.5 | 1.8 | 1.5 | 71.5 ± 5.6 | 58.1 ± 6.6 | more than 10% | ~12 | 38.3 ± 3 |  |  | low cytotoxicity | up to 55% | increased ROS production | 2.0 | highest apoptosis-inducing activity

Source: PMC10607100, “Anticancer and Antiphytopathogenic Activity of Fluorinated Isatins and Their Water-Soluble Hydrazone Derivatives” (International Journal of Molecular Sciences, 2023)
